Results taken from patent US7714014B2, “Targeting GLI proteins in human cancer by small molecules” (The Regents of the University of California, priority 2005, dated 2010).

Tests used:
[1] = Pharmacokinetic analysis in mice (i.p. injection); format: in vivo, mouse
Protocol: Three mice were i.p. injected in the abdomens with small molecule compounds FN1-5 at a dose of 30 mg/kg body weight. Then plasma was collected from the tail-vein of each mouse at 10 min, 2 hours, 6 hours and 24 hours after FN1-5 injection.
Similarly, the pharmacokinetic properties of small molecule compound FN1-8 were analyzed (FIG. 21B). Comparing the uptake of FN1-8 to FN1-5, the uptake of FN1-5 after i.p injection seems to be better, by about 2 fold.

[2] = system: cytosolic β-catenin in human normal skin fibroblasts (Malme-3); assay: Western blot of cytosolic β-catenin; format: cell-based; conditions: 10 μM or 20 μM
Protocol: […] Protein concentrations were measured using Bio-Rad Protein Assay reagent. Whole cell lysate protein (5-20 ug) were boiled for 5 min and separated by 10-20% SDS-PAGE. Proteins were transferred to an Immobilon-P membrane (Millipore Corp., Bedford, Mass.) using semi-dry transfer cell (Bio-Rad; Benicia, Calif.). The membranes were blocked with 5% nonfat milk powder and 0.1% Tween 20 in Tris-buffer saline overnight at 4° C. and then incubated with primary antibody for 1 h at room temperature. Membranes were washed in 5% nonfat milk powder and 0.1% Tween 20 in Tris-buffer saline for three 10-min periods. Horseradish peroxidase-conjugated goat anti-rabbit or donkey anti-mouse antibodies were used as secondary antibodies. Proteins were visualized with chemiluminescence luminol reagents (Santa Cruz Bio-technology). Anti-Dvl-3, and anti-Survivin, antibodies were from Santa Cruz Biotechnology (Santa Cruz, Calif.). Anti-Caspase3 antibody was from Oncogene (Cambridge, Mass.). Anti-β-Actin antibody was from Sigrna-Aldrich Corp. (St. Louis, Mo.). Anti-β-catenin antibody was from Transduction Laboratories (Lexington, Ky.). Anti-Cytochrome c antibody was from BD Biosciences (San Diego, Calif.). For detecting alteration of β-catenin cytosolic extracts were prepared and examined as described previously in the publications from our lab. […]

NSCLC H460 tumor = assay: Mouse Xenograft Model (NSCLC H460); format: in vivo
Protocol: The small molecule compound FN1-8 was tested in vivo in the mouse xenograft model bearing human cancer cells. Briefly, female athymic nude mice strain NCRNU-M (5-10 weeks old, 20-25 grams in weight; Taconic, Germantown, N.Y.) was maintained in pathogen-free conditions. Three human cancer cell lines: NSCLC H460, melanoma LOX, (both showing Gli3 activation), and colon cancer HT29 (no Gli3 activation, as a negative control), were used. Ten mice were used in each group and injected s.c. with 3×10^6 cancer cells in the dorsal area in a volume of 100 μl. After inoculation, human cancer cells were allowed to grow in mice for 7 days to become visible tumor nodules. Animals were then injected with small molecule compound FN1-8 at a dose of 50 mg/kg body weight (1 mg/mouse per day). DMSO alone was used as control. The compounds and controls were adjusted in 40 ul volume for i.p. injection in the abdomens of the mice. One mouse was sacrificed within 1 hour after the compound injection (after 6 injections) and its blood was collected. Then mass spectrometry was used to analyze the compound level in the blood sample to confirm the compound absorption into the blood stream of the mice. […] Tumor size was measured every three days, and tumor volumes were calculated using width (x) and length (y) (x^2y/2, where x<y). […]
In vivo efficacy study of small molecule compound FN1-8 were performed using a Mouse Xenograft Model (NSCLC H460). […] Tumor size (length and width according to their shapes) was measured with a caliper every three days. Tumor volumes were calculated using the equation […].
Three weeks after the initial tumor inoculation and the treatment as described above, tumors were dissected from the mice of each group and their weights were measured using a scale.
The in vivo efficacy study of small molecule compounds FN1-5 and FN1-8 in the Mouse Xenograft Model (NSCLC H460) was repeated using lower doses of the compounds. […] 24 days after the initial tumor inoculation, tumors were dissected from the mice of each group and their weights were measured using a scale. […]

uptake of FN1-5 relative to FN1-8 ([1]; i.p. injection) | time of uptake into plasma ([1]; i.p., 30 mg/kg) [min] | time within which plasma/serum concentration diminishes ([1]; i.p., 30 mg/kg) [h] | Structure (SMILES) | cytosolic β-catenin level [2] | tumor growth (NSCLC H460 tumor; 50 mg/kg i.p. daily for 2×6 days) | tumor weight (NSCLC H460 tumor; 50 mg/kg i.p. daily for 2×6 days, three weeks after inoculation) | tumor weight (NSCLC H460 tumor; low dose 15 mg/kg i.p. daily for 2×6 days, 24 days after inoculation)
about 2 fold | ≤ 10 | ≤ 24 | O=C(NCCCCCO)C1C(c2ccccc2)=NN(c2ccccc2)C1c1ccccc1 (stereo not shown) [FN1-5, N-(5-Hydroxypentyl)-1,3,5-triphenyl-4,5-dihydro-pyrazole-4-carboxyamide] | – | – | – | –
– | – | – | O=C(NCCc1ccc(O)cc1)C1C(c2ccccc2)=NN(c2ccccc2)C1c1ccccc1 (stereo not shown) [FN1-8, N-(2-(4-Hydroxyphenyl)ethyl)-1,3,5-triphenyl-4,5-dihydro-pyrazole-4-carboxyamide] | no noticeable change | significantly suppressed | dramatically decreased | decreased
